Test results taken from patent US20090227560A1, “Substituted imidazole compound and use thereof” (priority 2007, published 2009).
Structures can show the parent of a compound that is named as a salt.

Molecular target: T1, Human renin (Homo sapiens, UniProt P00797)
T1 construct: thus to obtain 1.5 mg of a purified product of active type renin (67-406); made in house; host or cells: FreeStyle 293-F cells (transient expression of pcDNA3.1(+)/hREN)
T1 sequence (P00797 67-406): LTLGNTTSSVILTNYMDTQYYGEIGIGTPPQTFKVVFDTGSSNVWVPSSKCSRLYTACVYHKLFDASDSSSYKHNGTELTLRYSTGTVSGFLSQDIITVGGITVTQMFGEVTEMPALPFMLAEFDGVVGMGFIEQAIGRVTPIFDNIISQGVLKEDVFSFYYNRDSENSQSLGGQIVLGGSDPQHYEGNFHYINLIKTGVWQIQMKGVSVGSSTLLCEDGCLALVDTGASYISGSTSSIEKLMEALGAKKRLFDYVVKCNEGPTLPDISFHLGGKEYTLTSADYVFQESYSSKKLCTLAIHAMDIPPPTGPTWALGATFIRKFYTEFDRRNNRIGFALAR
Test: Measurement of renin inhibition value A (FITC-labelled substrate peptide, capillary electrophoresis)
Format: biochemical
Settings: test compound 1 μM, renin 4.7 nM, pH 6.0, 37° C., 30 min, read-out: inhibitory activity (%) at 1 μM
Experimental: Human renin was obtained by expressing preprorenin (1-406) in an animal cell, treating the prorenin (24-406) contained in the culture supernatant with trypsin, and taking the active type (67-406).
To 3.6 mg of prorenin (24-406) dissolved in 5.2 ml of 0.1 M Tris-hydrochloric acid (pH 8.0), 12 μg of trypsin (Roche Diagnostics Corp.) was added, and the mixture was allowed to react at 28° C. for 55 min to carry out activation of renin. After the reaction, 0.4 ml of immobilized trypsin inhibitor (Pierce Biotechnology, Inc.) was added to remove the trypsin used in the activation by adsorption. The reaction liquid containing the active type renin was concentrated using Vivaspin 20 (molecular weight cut off 10,000, Vivascience, Inc.), and was diluted with 20 mM Tris-hydrochloric acid (pH 8.0). The diluted liquid was fed to a TSKgel DEAE-5PW column (7.5 mm I.D.×75 mm, Tosoh Corp.) equilibrated with 20 mM Tris-hydrochloric acid (pH 8.0) at a flow rate of 1 ml/min to adsorb the active type renin (67-406). The column was washed with the buffer solution used for the equilibration, and then elution was carried out by means of a sodium chloride linear concentration gradient from 0 M to 0.3 M, thus to obtain 1.5 mg of a purified product of active type renin (67-406).
As a substrate for renin activity measurement, a substrate peptide (FITC-Acp-Asp-Arg-Val-Tyr-Ile-His-Pro-Phe-His-Leu-Val-Ile-His-Gln-Arg-NH2; SEQ ID No.8) wherein the N-terminal of a peptide prepared in reference to a partial sequence (Asp-Arg-Val-Tyr-Ile-His-Pro-Phe-His-Leu-Val-Ile-His-Asn-Glu-NH2; SEQ ID No.7) of human angiotensinogen was bound with epsilon aminocaproic acid (Acp) as a linker and labeled with a fluorescence reagent Fluorescein isothiocyanate (FITC). 2 μl each of the test compound (containing 100% DMSO) was added to each well of a 384-well black plate (Nalge Nunc International Co., Ltd.). Renin was diluted with a buffer solution for reaction (20 mM citric acid-sodium citrate (pH 6.0)) to a concentration of 4.7 nM, and 30 μl each of the dilution was added to each well. The dilution was left to stand at 37° C. for 10 min, and then 8 μl of each of a 25 μM solution of substrate peptide was added to each well to initiate the reaction. The reaction mixture was left to stand at 37° C. for 30 min, and then 40 μl each of a reaction terminating solution [200 mM Tris-hydrochloric acid (pH 8.0), 0.04% Triton-X 100, 0.4% Coating 3 reagent (Caliper Life Sciences Corp.) and 1 μM CGP-29287 (Bachem Holding AG)] was added to each well to terminate the reaction.
The substrate peptide and the product peptide were separated by a microchip type capillary electrophoresis system 250HTS (Caliper Life Sciences Co., Ltd.), and the rate of reaction [(peak height of product)/(peak height of product+peak height of substrate)×100(%)] was calculated from the ratio of the respective peak height of the peptides obtained by fluorimetric detection (excitation wavelength 457 nm, measurement wavelength 530 nm), and was used as an index of the renin activity.
While the reaction rate of the well where 100% DMSO only was added was taken as 0% inhibition rate, and the reaction rate of the well where 10 μM of CGP-29287 was added was taken as 100% inhibition rate, the renin inhibitory activity of the wells where the test compound (containing 100% DMSO) was added was calculated.

**Q.** Which inhibition at 1 µM does the source give for `O=C(c1ncn([C@H]2CCCC[C@H]2O)c1-c1ccccc1)N1CCNC[C@H]1Cc1ccccc1` [Example 352, (1R,2S)-2-(4-{[(2R)-2-Benzylpiperazin-1-yl]carbonyl}-5-phenyl-1H-imidazol-1-yl)cyclohexanol] here?
**A.** 101%

**Q.** For `COC[C@]1(O)CCCC[C@H]1n1cnc(C(=O)N2CCNC[C@H]2CCOc2ccccc2)c1-c1ccccc1` [Example 387, (1S,2R)-1-(Methoxymethyl)-2-(4-{[(2R)-2-(2-phenoxyethyl)piperazin-1-yl]carbonyl}-5-phenyl-1H-imidazol-1-yl)cyclohexanol dihydrochloride], which inhibition at 1 µM is on record?
**A.** 109%

**Q.** `O=C(c1ncn([C@H]2CCCC[C@H]2O)c1-c1ccccc1)N1CCNC[C@H]1Cc1cc(F)cc(F)c1` [Example 1, (1R,2S)-2-(4-{[(2R)-2-(3,5-Difluorobenzyl)piperazin-1-yl]carbonyl}-5-phenyl-1H-imidazol-1-yl)cyclohexanol hydrochloride] was tested. Which inhibition at 1 µM did it give?
**A.** 96%

**Q.** `CCCCC1(O)CCCCC1n1cnc(C(=O)N2CCNC[C@H]2Cc2ccccc2)c1-c1ccccc1` (stereo partly drawn) [Example 360, 2-(4-{[(2R)-2-Benzylpiperazin-1-yl]carbonyl}-5-phenyl-1H-imidazol-1-yl)-1-butylcyclohexanol hydrochloride] was tested. Which inhibition at 1 µM did it give?
**A.** 99%

**Q.** For `COC[C@]1(O)CCCC[C@H]1n1cnc(C(=O)N2CCNC[C@H]2CCOc2ccc(C(=O)OC)cc2)c1-c1ccccc1` [Example 15, Methyl 4-{2-[(2R)-1-({1-[(1R,2S)-2-hydroxy-2-(methoxymethyl)cyclohexyl]-5-phenyl-1H-imidazol-4-yl}carbonyl)piperazin-2-yl]ethoxy}benzoate], which inhibition at 1 µM is on record?
**A.** 96%

**Q.** How did the inhibition at 1 µM turn out when `CCOCC1(O)CCCCC1n1cnc(C(=O)N2CCNC[C@H]2Cc2ccccc2)c1-c1ccccc1` (stereo partly drawn) [Example 361, 2-(4-{[(2R)-2-Benzylpiperazin-1-yl]carbonyl}-5-phenyl-1H-imidazol-1-yl)-1-(ethoxymethyl)cyclohexanol] was run?
**A.** 100%

**Q.** With `COC[C@]1(O)CCCC[C@H]1n1cnc(C(=O)N2CCNC[C@H]2CCOc2ccccc2F)c1-c1ccccc1` [Example 389, (1S,2R)-2-[4-({(2R)-2-[2-(2-Fluorophenoxy)ethyl]piperazin-1-yl}carbonyl)-5-phenyl-1H-imidazol-1-yl]-1-(methoxymethyl)cyclohexanol] as the molecule, how does the inhibition at 1 µM read?
**A.** 106%

**Q.** Which inhibition at 1 µM does the source give for `O=C(c1ncn(C2CCCCC[C@@H]2O)c1-c1ccccc1)N1CCNC[C@H]1Cc1ccccc1` (stereo partly drawn) [Example 7, trans-2-(4-{[(2R)-2-Benzylpiperazin-1-yl]carbonyl}-5-phenyl-1H-imidazol-1-yl)cycloheptanol] here?
**A.** 100%

**Q.** Which inhibition at 1 µM does the source give for `COC[C@]1(O)CCCC[C@H]1n1cnc(C(=O)N2CCNC[C@H]2Cc2ccccc2)c1-c1ccccc1` [Example 367, (1S,2R)-2-(4-{[(2R)-2-Benzylpiperazin-1-yl]carbonyl}-5-phenyl-1H-imidazol-1-yl)-1-(methoxymethyl)cyclohexanol dihydrochloride] here?
**A.** 99%

**Q.** With `COC[C@]1(O)CCCC[C@H]1n1cnc(C(=O)N2CCNC[C@H]2Cc2cccnc2)c1-c1ccccc1` [Example 380, (1S,2R)-1-(Methoxymethyl)-2-(5-phenyl-4-{[(2R)-2-(pyridin-3-ylmethyl)piperazin-1-yl]carbonyl}-1H-imidazol-1-yl)cyclohexanol dihydrochloride] as the molecule, how does the inhibition at 1 µM read?
**A.** 100%

**Q.** For `O=C(c1ncn(CC2(O)CCCCC2)c1-c1ccccc1)N1CCNC[C@H]1Cc1ccccc1` [Example 4, 1-[(4-{[(2R)-2-Benzylpiperazin-1-yl]carbonyl}-5-phenyl-1H-imidazol-1-yl)methyl]cyclohexanol], which inhibition at 1 µM is on record?
**A.** 99%

**Q.** How did the inhibition at 1 µM turn out when `COC[C@]1(O)CCCC[C@H]1n1cnc(C(=O)N2CCNC[C@H]2Cc2cc(F)cc(F)c2)c1-c1ccccc1` [Example 379, (1S,2R)-2-(4-{[(2R)-2-(3,5-Difluorobenzyl)piperazin-1-yl]carbonyl}-5-phenyl-1H-imidazol-1-yl)-1-(methoxymethyl)cyclohexanol hydrochloride] was run?
**A.** 99%

**Q.** With `CCOC(=O)N[C@H]1CCCC[C@@H]1n1cnc(C(=O)N2CCNC[C@H]2Cc2cc(F)cc(F)c2)c1-c1ccccc1` [Example 358, Ethyl [(1S,2S)-2-(4-{[(2R)-2-(3,5-difluorobenzyl)piperazin-1-yl]carbonyl}-5-phenyl-1H-imidazol-1-yl)cyclohexyl]carbamate] as the molecule, how does the inhibition at 1 µM read?
**A.** 103%

**Q.** `O=C(c1ncn(C2CCCCC2)c1-c1ccccc1)N1CCNC[C@H]1Cc1ccccc1` [Example 349, (2R)-2-Benzyl-1-[(1-cyclohexyl-5-phenyl-1H-imidazol-4-yl)carbonyl]piperazine] was tested. Which inhibition at 1 µM did it give?
**A.** 101%

**Q.** With `CCOC(=O)N[C@H]1CCCC[C@@H]1n1cnc(C(=O)N2CCNC[C@H]2Cc2ccccc2)c1-c1ccccc1` [Example 357, Ethyl [(1S,2S)-2-(4-{[(2R)-2-benzylpiperazin-1-yl]carbonyl}-5-phenyl-1H-imidazol-1-yl)cyclohexyl]carbamate] as the molecule, how does the inhibition at 1 µM read?
**A.** 100%

**Q.** For `COC[C@]1(O)CCCC[C@H]1n1cnc(C(=O)N2CCNC[C@H]2CCn2ncc3ccccc32)c1-c1ccccc1` [Example 391, (1S,2R)-2-[4-({(2R)-2-[2-(1H-Indazol-1-yl)ethyl]piperazin-1-yl}carbonyl)-5-phenyl-1H-imidazol-1-yl]-1-(methoxymethyl)cyclohexanol], which inhibition at 1 µM is on record?
**A.** 109%

**Q.** Which inhibition at 1 µM does the source give for `COC[C@]1(O)CCCC[C@H]1n1cnc(C(=O)N2CCNC[C@H]2CCOc2ccc(C(=O)NC3CC3)cc2)c1-c1ccccc1` [Example 390, N-Cyclopropyl-4-{2-[(2R)-1-({1-[(1R,2S)-2-hydroxy-2-(methoxymethyl)cyclohexyl]-5-phenyl-1H-imidazol-4-yl}carbonyl)piperazin-2-yl]ethoxy}benzamide] here?
**A.** 105%

**Q.** Which inhibition at 1 µM does the source give for `CSCCCOC[C@@]1(O)CCCC[C@@H]1n1cnc(C(=O)N2CCNC[C@H]2Cc2ccccc2)c1-c1ccccc1` [Example 378, (1R,2S)-2-(4-{[(2R)-2-Benzylpiperazin-1-yl]carbonyl}-5-phenyl-1H-imidazol-1-yl)-1-{[3-(methylthio)propoxy]methyl}cyclohexanol] here?
**A.** 99%

**Q.** With `O=C(c1ncn([C@@H]2CCCC[C@@]2(O)CC2CC2)c1-c1ccccc1)N1CCNC[C@H]1Cc1ccccc1` [Example 363, (1R,2R)-2-(4-{[(2R)-2-Benzylpiperazin-1-yl]carbonyl}-5-phenyl-1H-imidazol-1-yl)-1-(cyclopropylmethyl)cyclohexanol hydrochloride] as the molecule, how does the inhibition at 1 µM read?
**A.** 98%

**Q.** Which inhibition at 1 µM does the source give for `COC(=O)N[C@H]1CCCC[C@@H]1n1cnc(C(=O)N2CCNC[C@H]2Cc2ccccc2)c1-c1ccccc1` [Example 6, Methyl [(1S,2S)-2-(4-{[(2R)-2-benzylpiperazin-1-yl]carbonyl}-5-phenyl-1H-imidazol-1-yl)cyclohexyl]carbamate] here?
**A.** 98%

**Q.** With `COC[C@]1(O)CCCC[C@H]1n1cnc(C(=O)N2CCNC[C@H]2Cc2ccccc2)c1-c1cccc(F)c1` [Example 383, (1S,2R)-2-[4-{[(2R)-2-Benzylpiperazin-1-yl]carbonyl}-5-(3-fluorophenyl)-1H-imidazol-1-yl]-1-(methoxymethyl)cyclohexanol] as the molecule, how does the inhibition at 1 µM read?
**A.** 100%
